According to the supplement of paper PMC10307832:

What was measured:
Assay in all cases: relative viability (nuclei count vs DMSO), 5 days (fraction); higher = more cells survive
Dactolisib + Dasatinib = compound: Cn1c(=O)n(-c2ccc(C(C)(C)C#N)cc2)c2c3cc(-c4cnc5ccccc5c4)ccc3ncc21 [Dactolisib] + Cc1nc(Nc2ncc(C(=O)Nc3c(C)cccc3Cl)s2)cc(N2CCN(CCO)CC2)n1 [Dasatinib] (partner 0.075 µM)
Summary of the method: (§1)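 Relative viability equals treated-well nuclei counts divided by vehicle-well nuclei counts. Counts came from 4× images of lung cancer cell lines grown in 1536-well plates for 5 days after pin-tool dosing on the day after seeding. Dosing used one drug alone or a fixed anchor-drug dose plus five library-drug doses (not always all listed) in √10 steps, and values are medians of duplicate plates.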

Dactolisib + Navitoclax = compound: Cn1c(=O)n(-c2ccc(C(C)(C)C#N)cc2)c2c3cc(-c4cnc5ccccc5c4)ccc3ncc21 [Dactolisib] + CC1(C)CCC(c2ccc(Cl)cc2)=C(CN2CCN(c3ccc(C(=O)NS(=O)(=O)c4ccc(N[C@H](CCN5CCOCC5)CSc5ccccc5)c(S(=O)(=O)C(F)(F)F)c4)cc3)CC2)C1 [Navitoclax] (partner 0.5 µM)
Summary of the method: as §1

AZ505 + Crizotinib = compound: C1CCC(CC1)N(CCNCCC2=C3C(=C(C=C2)O)NC(=O)CO3)C(=O)CCNCCC4=CC(=C(C=C4)Cl)Cl [AZ505] + C[C@@H](Oc1cc(-c2cnn(C3CCNCC3)c2)cnc1N)c1c(Cl)ccc(F)c1Cl [Crizotinib] (partner 1 µM)
Summary of the method: as §1

Dactolisib + Luminespib = compound: Cn1c(=O)n(-c2ccc(C(C)(C)C#N)cc2)c2c3cc(-c4cnc5ccccc5c4)ccc3ncc21 [Dactolisib] + CCNC(=O)c1noc(-c2cc(C(C)C)c(O)cc2O)c1-c1ccc(CN2CCOCC2)cc1 [Luminespib] (partner 0.01 µM)
Summary of the method: as §1

Cell Line	relative viability (Dactolisib + Dasatinib; first compound 0.002 µM)	relative viability (Dactolisib + Dasatinib; first compound 0.006325 µM)	relative viability (Dactolisib + Dasatinib; first compound 0.02 µM)	relative viability (Dactolisib + Dasatinib; first compound 0.06325 µM)	relative viability (Dactolisib + Dasatinib; first compound 0.2 µM)	relative viability (Dactolisib + Navitoclax; first compound 0.002 µM)	relative viability (Dactolisib + Navitoclax; first compound 0.006325 µM)	relative viability (Dactolisib + Navitoclax; first compound 0.02 µM)	relative viability (Dactolisib + Navitoclax; first compound 0.06325 µM)	relative viability (Dactolisib + Navitoclax; first compound 0.2 µM)	relative viability (AZ505 + Crizotinib; first compound 0.08 µM)	relative viability (AZ505 + Crizotinib; first compound 0.253 µM)	relative viability (AZ505 + Crizotinib; first compound 0.8 µM)	relative viability (AZ505 + Crizotinib; first compound 2.53 µM)	relative viability (AZ505 + Crizotinib; first compound 8 µM)	relative viability (Dactolisib + Luminespib; first compound 0.002 µM)	relative viability (Dactolisib + Luminespib; first compound 0.006325 µM)	relative viability (Dactolisib + Luminespib; first compound 0.02 µM)	relative viability (Dactolisib + Luminespib; first compound 0.06325 µM)	relative viability (Dactolisib + Luminespib; first compound 0.2 µM)
201T	0.601	0.538	0.524	0.554	0.346	1.18	1.22	1.14	1.17	0.943	0.986	1.03	0.932	1.01	1.02	1.15	0.992	0.952	0.89	0.469
A549						1.29	1.05	0.706	0.248	0.104	0.661	0.849	0.692	0.776	0.608					
A-427	0.841	0.645	0.668	0.436	0.352	0.953	0.951	0.915	0.393	0.349	0.771	0.829	0.766	0.837	0.944	0.737	0.834	0.861	0.572	0.47
ABC-1	0.57	0.486	0.416	0.392	0.282						1.01	1.12	1.19	1.21	1.24	0.496	0.59		0.257	0.366
BEN	0.333	0.288	0.307	0.329	0.262	0.114	0.0698	0.0623	0.0651	0.0432	0.789	0.889	0.854	0.816	1.07	0.382	0.234	0.366	0.25	0.268
CAL-12T	0.456	0.35	0.252	0.172	0.108	1.38	1.17	0.681	0.264	0.25	0.599	0.753	0.535	0.684	0.563	0.477	0.128	0.117	0.142	0.12
COR-L23	0.634	0.471	0.543	0.169	0.144	1.14	0.934	0.644	0.238	0.188	0.42	0.621	0.518	0.567	0.385	0.678	0.49	0.284	0.123	0.138
COR-L 105	0.294	0.293	0.309	0.2	0.202	0.754	0.759	1.02	0.323	0.271	0.579	0.964	0.75	0.963	0.793	0.776	0.889	0.55	0.334	0.254
Calu-6						0.972	0.794	0.703	0.411	0.259	0.735	0.806	0.785	0.589	0.748					
ChaGo-K-1	0.584	0.56	0.597	0.523	0.556	0.92	1.03	0.975	1.13	0.765	1.17	1.04	1.12	0.958	1.15	0.622	0.562	0.582	0.39	0.463
EBC-1						0.408	0.417	0.212	0.173	0.145	0.21	0.198	0.178	0.203	0.184					
EKVX	0.523	0.578	0.382	0.269	0.204	0.961	0.98	0.815	0.782	0.346	0.777	1.05	0.926	0.798	1.02	0.808	0.743	0.736	0.453	0.247
EMC-BAC-2	0.337	0.325	0.342	0.209	0.18	1.19	1.13	1.11	0.867	0.642	0.791	0.911	0.698	0.735	0.761	1.15	1.14	1.1	0.875	0.556
EPLC-272H	0.359	0.254	0.318	0.207	0.233	1.31	1.01	0.937	0.592	0.365	0.714	0.865	0.927	0.985	0.934	0.691	0.262	0.264	0.203	0.23
H3255	0.489	0.387	0.357	0.397	0.28	0.724	0.488	0.426	0.458	0.176	0.702	0.854	0.904	0.913	0.918	0.843	0.875	0.912	0.796	0.511
HARA	0.273	0.25	0.213	0.292	0.127	1.2	1.13	1.18	1.13	0.404	0.954	0.89	0.896	0.909	0.948	0.829	0.462	0.62	0.314	0.121
HCC-15	0.609	0.559	0.499	0.319	0.229	0.767	0.646	0.673	0.475	0.322	0.791	0.908	0.772	0.844	0.823	0.38	0.303	0.507	0.173	0.142
HCC-44						1.06	0.982	1	0.266	0.3	0.748	0.772	0.804	0.773	0.791	0.914	1.04	0.943	0.379	0.644
HCC-78	0.427	0.409	0.336	0.399	0.224	0.784	0.791	0.543	0.288	0.251		0.397	0.373	0.341	0.389					
HCC-366	0.598	0.565	0.597	0.341	0.136	1	0.961	1.07	0.67	0.498	0.418	0.365	0.551	0.396	0.534					

Cell Line	relative viability (Dactolisib + Dasatinib; first compound 0.002 µM)	relative viability (Dactolisib + Dasatinib; first compound 0.006325 µM)	relative viability (Dactolisib + Dasatinib; first compound 0.02 µM)	relative viability (Dactolisib + Dasatinib; first compound 0.06325 µM)	relative viability (Dactolisib + Dasatinib; first compound 0.2 µM)	relative viability (Dactolisib + Navitoclax; first compound 0.002 µM)	relative viability (Dactolisib + Navitoclax; first compound 0.006325 µM)	relative viability (Dactolisib + Navitoclax; first compound 0.02 µM)	relative viability (Dactolisib + Navitoclax; first compound 0.06325 µM)	relative viability (Dactolisib + Navitoclax; first compound 0.2 µM)	relative viability (AZ505 + Crizotinib; first compound 0.08 µM)	relative viability (AZ505 + Crizotinib; first compound 0.253 µM)	relative viability (AZ505 + Crizotinib; first compound 0.8 µM)	relative viability (AZ505 + Crizotinib; first compound 2.53 µM)	relative viability (AZ505 + Crizotinib; first compound 8 µM)	relative viability (Dactolisib + Luminespib; first compound 0.002 µM)	relative viability (Dactolisib + Luminespib; first compound 0.006325 µM)	relative viability (Dactolisib + Luminespib; first compound 0.02 µM)	relative viability (Dactolisib + Luminespib; first compound 0.06325 µM)	relative viability (Dactolisib + Luminespib; first compound 0.2 µM)
HCC-827	0.28	0.331	0.301	0.238	0.207	1.03	1.02	1.06	0.905	0.687	0.865	0.854	0.913	0.918	0.948	0.532	0.626	0.538	0.401	0.144
HOP-62	0.637	0.578	0.625	0.349	0.277	1.24	1.08	1.06	0.353	0.613	0.849	0.853	1.03	0.964	0.88	0.983	0.812	0.888	0.543	0.561
IA-LM						0.819	0.579	0.564	0.116	0.0832	0.695	0.769	0.861	0.75	1.07					
LC-2-ad	0.495	0.486	0.491	0.349	0.297	0.453		0.285	0.189	0.159	0.432	0.475	0.438	0.472	0.427	1.14	0.923	0.922	0.551	0.524
LCLC-97TM1	0.811	0.85	0.858	0.853	0.741	0.503	0.33	0.3	0.202	0.192	0.503	0.479	0.478	0.709	0.413	0.753	0.754	0.661	0.46	0.213
LCLC-103H	0.529	0.422	0.45	0.429	0.307						0.868	1.03	0.987	1.01	0.969	1.03	0.905	0.844	0.483	0.444
LK-2	0.279	0.322	0.31	0.182	0.144	0.773	0.852	0.639	0.381	0.282	0.234	0.237	0.211	0.21	0.215	0.152	0.198	0.195	0.171	0.197
NCI-H358	0.162	0.157	0.191	0.0796	0.0694						0.566	0.572	0.551	0.536	0.371	0.399	0.289	0.273	0.203	0.111
NCI-H522	0.993	0.791	0.822	0.689	0.581											1.15	1.17	1.22	0.659	0.596
NCI-H650	0.539	0.432	0.449	0.314	0.305						0.604	0.749	0.698	0.642	0.758	0.779	0.778	0.787	0.443	0.369
NCI-H661	0.562	0.744	0.483	0.296	0.286							0.941		0.977	0.942	0.929	0.99	0.866	0.391	0.496
NCI-H1299						1.06	1.1	1.08	0.986	1.03	0.959	1.06	0.969	0.926	0.988					
NCI-H1395	0.405	0.405	0.392	0.381	0.355	0.834	1.03	0.999	0.821	0.631						0.544	0.681	0.678	0.434	0.43
NCI-H1563	0.498	0.466	0.47	0.474	0.458						0.831	0.807	0.805	0.848	0.809	0.535	0.532	0.511	0.47	0.507
NCI-H1623	0.518	0.585	0.528	0.412	0.379											0.604	0.491	0.462	0.308	0.275
NCI-H1703						0.875	1.03	0.684	0.365	0.229	0.532	0.716	0.58	0.58	0.917					
NCI-H1793	0.388	0.312	0.253	0.16	0.134	0.372	0.416	0.272	0.184	0.159						0.155	0.15	0.164	0.163	0.165
NCI-H2342	0.298	0.294	0.348	0.31	0.284											0.677	0.634	0.653	0.495	0.437
SW 900	0.431	0.455	0.694	0.265	0.174											0.17	0.2	0.157	0.174	0.169
